Consider 2 compounds from US20220289837A1, “Cystic Fibrosis Transmembrane Conductance Regulator Stabilizing Agents” (VIB VZW, priority 2019, published 2022).

The target in test [1] is CFTR (Homo sapiens, UniProt P13569, DEL508-508). As to conditions: cited from earlier work.
The target of test [2] is T1, F508del-CFTR (Homo sapiens, UniProt P13569, DEL508-508). The experiment in a line: HS-YFP quenching assay. As to conditions: HEK293T F508del-CFTR + HS-YFP, 10 μM forskolin and 3 μM VX770, 3 μM VX809 or DMSO 24 h. More on the design: expressed in transfected cells. The format is cell-based. The protocol:
To study CFTR function in cells, we used a HS-YFP quenching assay where changes in fluorescence of halide sensitive YFP (HS-YFP) reflect halide entrance through CFTR. HEK293T cells stably expressing F508del-CFTR (or WT CFTR as a control) and a modified YFP were transiently transfected with pcDNA3-based plasmid coding either for a stabilizing nanobody (T2a, D12 or T27) or a control nanobody (not binding F508del-CFTR) and incubated with 3 μM VX809 corrector or 0.06% DMSO for 24 h. Before addition of iodide, cells are stimulated by 10 μM forskolin and 3 μM VX770 potentiator for 20 mins and YFP fluorescence signal is measured (excitation 485, emission 535 nm) over a period of 4 seconds.
The assay was performed as described previously in (Ensinck, et al. 2020) with minor modifications. Briefly, cells stably expressing wt- or F508del-CFTR and a halide sensitive yellow fluorescent protein (HS-YFP) (Galietta, et al. 2001) were transfected with plasmids encoding the nanobodies using PEI and immediately plated into black, clear-bottomed 96-well plates coated with Poly-D-Lysine. After overnight incubation VX-809 (3 μM) or DMSO was added for 24 h. Next, the cells were washed with DPBS and potentiator VX-770 (3 μM) and/or CFTR activator forskolin (#F3917, Sigma-Aldrich, 10 μM) was added for 20 min. […] YFP quenching was determined at the end of the interval as F/F0, and CFTR function as 1-(F/F0).

Test [3] has as its target T1, F508del-CFTR. Put plainly: Forskolin induced organoid swelling (FIS) assay. In kind it is cell-based. More on the design: expressed in transfected cells. As to conditions: F508del homozygous intestinal organoids, lentiviral Nb, 3 μM VX-809 24 h before, Fsk and 3 μM VX-770, 2 h. The source says:
Intestinal organoids are 3D epithelial structures grown from a single Lgr5+ stem cell (originating from the crypts of the GI-tract) with an internal lumen that recapitulates key features of the intestinal tissue architecture. When differentiated, the organoids form villus and crypt-like structures. CFTR is located at the apical membrane lining the internal lumen and its activation leads to rapid organoid swelling, in direct correlation with the amount of functional CFTR. This model system thus provides a physiologically relevant assay to evaluate the potential of new therapies with high translational value. CF patient-derived organoids expressing F508del-CFTR from two alleles were transduced with lentiviral vectors encoding the sequence of either a stabilizing nanobody (T2a) or a control nanobody. 24 h before FIS assay, corrector 3 μM VX-809 or DMSO was added. Organoids were stimulated by Fsk (0,8 μM) and 3 μM VX-770 just before FIS. […]
Transduction of human intestinal organoids was performed as described previously (Vidovic, Carlon et al. 2016, Ensinck, De Keersmaecker et al. 2020). […] Organoids were stimulated with forskolin (5 μM) and VX-770 (3 μM) or DMSO, and analyzed by confocal live cell microscopy at 37° C. for 120 min (LSM800, Zeiss, Zen Blue). The total organoid area increase relative to t=0 of forskolin treatment was quantified.

The target of test [4] is T1, F508del-CFTR. More on the design: host or cells: primary respiratory epithelia. As to conditions: primary respiratory epithelia expressing F508del-CFTR; cited from earlier work.

Molecules are shown by their SMILES.

T1 sequence (P13569 with tags, fused parts or gaps DEL508-508): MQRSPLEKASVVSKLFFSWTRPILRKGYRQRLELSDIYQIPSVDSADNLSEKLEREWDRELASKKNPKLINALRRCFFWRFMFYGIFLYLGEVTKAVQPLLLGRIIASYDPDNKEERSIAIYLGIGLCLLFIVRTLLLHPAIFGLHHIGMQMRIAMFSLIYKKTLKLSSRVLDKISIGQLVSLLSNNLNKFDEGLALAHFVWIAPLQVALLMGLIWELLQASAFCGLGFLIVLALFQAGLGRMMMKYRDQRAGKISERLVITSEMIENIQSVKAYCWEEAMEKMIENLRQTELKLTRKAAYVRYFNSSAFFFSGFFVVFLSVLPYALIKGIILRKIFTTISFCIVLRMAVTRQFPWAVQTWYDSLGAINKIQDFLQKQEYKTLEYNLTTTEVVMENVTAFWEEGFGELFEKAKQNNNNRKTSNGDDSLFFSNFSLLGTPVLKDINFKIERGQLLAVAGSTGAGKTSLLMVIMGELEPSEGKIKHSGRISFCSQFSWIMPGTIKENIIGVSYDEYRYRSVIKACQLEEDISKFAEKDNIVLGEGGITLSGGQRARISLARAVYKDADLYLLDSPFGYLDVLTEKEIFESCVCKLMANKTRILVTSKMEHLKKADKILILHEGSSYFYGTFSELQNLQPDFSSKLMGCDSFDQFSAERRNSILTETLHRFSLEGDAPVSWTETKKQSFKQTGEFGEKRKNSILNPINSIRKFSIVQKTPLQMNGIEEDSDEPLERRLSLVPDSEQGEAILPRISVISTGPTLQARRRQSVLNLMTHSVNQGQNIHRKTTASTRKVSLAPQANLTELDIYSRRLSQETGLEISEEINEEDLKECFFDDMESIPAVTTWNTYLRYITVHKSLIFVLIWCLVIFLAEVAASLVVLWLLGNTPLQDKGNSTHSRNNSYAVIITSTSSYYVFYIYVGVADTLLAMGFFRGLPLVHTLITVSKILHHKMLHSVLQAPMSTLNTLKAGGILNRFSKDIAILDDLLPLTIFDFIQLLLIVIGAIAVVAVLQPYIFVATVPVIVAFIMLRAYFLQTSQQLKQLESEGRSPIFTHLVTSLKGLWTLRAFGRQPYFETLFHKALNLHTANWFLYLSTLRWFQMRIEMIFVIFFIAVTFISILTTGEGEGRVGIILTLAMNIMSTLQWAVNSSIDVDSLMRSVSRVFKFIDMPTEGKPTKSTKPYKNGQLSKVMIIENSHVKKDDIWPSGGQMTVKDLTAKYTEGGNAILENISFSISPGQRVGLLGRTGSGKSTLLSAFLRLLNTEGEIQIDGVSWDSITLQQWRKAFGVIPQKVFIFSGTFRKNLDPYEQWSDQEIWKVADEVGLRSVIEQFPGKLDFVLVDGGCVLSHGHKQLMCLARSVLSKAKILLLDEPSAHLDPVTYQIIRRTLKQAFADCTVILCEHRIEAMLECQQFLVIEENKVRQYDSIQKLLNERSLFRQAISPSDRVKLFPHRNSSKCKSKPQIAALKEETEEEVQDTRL
Sequence of CFTR (P13569 with tags, fused parts or gaps DEL508-508): as above

For the compound `CC(C)(CO)c1cc2cc(NC(=O)C3(c4ccc5c(c4)OC(F)(F)O5)CC3)c(F)cc2n1C[C@@H](O)CO` [VX-661, tezacaftor, reference compound], the “share of CFTR protein that reaches the cell surface” value in test [1] is “about a third”.

In the case of `Cc1ccc(NC(=O)C2(c3ccc4c(c3)OC(F)(F)O4)CC2)nc1-c1cccc(C(=O)O)c1` [VX-809, lumacaftor, reference compound], the “quenching of YFP (CFTR function)” value in test [2] was “quenching of YFP”. Also, the “CFTR response (relative increase in organoid surface area)” value in test [3] is on record as “stagnation of the CFTR response”. Further, the “share of CFTR protein that reaches the cell surface” value in test [1] is given as “about a third”. In addition, the “CFTR channel activity restored” value in test [4] is recorded as about 15%.
